For test [1], the system named is zebrafish. It is filed as in vivo. The note with it: for rescue of behavioral phenotypes by pretreatment with the GABAAR antagonist PTX: violet light and eASR phenotypes, in words.
In test [2] the test system is human GABAARs (α1β2 and α1β2γ2). The format is cell-based. The note with it: for Ave Norm FLIPR Score / FLIPR Results: compound at 20 uM then 5 uM GABA; for Ave Norm FLIPR Score: DMSO = 1; for FLIPR Results: Positive/Negative; for GABAAR PAM activity in FLIPR, in words: in the presence of GABA. The text has this: To determine if these compounds targeted human GABAARs, we tested them in a fluorescent imaging plate reader (FLIPR) assay on HEK293 cells transfected with α1β2 and α1β2γ2 human GABAAR subtypes. […]. […] While some of the compounds appeared to function in this assay as negative allosteric modulators (NAMs), reductions in fluorescence were likely due to toxicity-induced cell loss (Fig. 2f, Supplementary Table 5).
We used the FLIPR system (Molecular Devices) to quantify GABA-evoked activity of human GABAARs. We chose a membrane potential dye (Molecular Devices) to measure changes in membrane potentials and stably transfected HEK293 cells that expressed α1, β2 and γ2. Since we observed an increase in GABA-evoked responses when transfected with γ2 transiently, we describe the cells as having a low level of γ-subunit expression, indicating heterogeneity of GABAAR compositions in the cell (α1β2 or α1β2γ2). To assay for direct agonists, fluorescence was subtracted pre- and post compound addition. To assay for PAMs, cells were treated with compound at 20 uM and then with 5 uM GABA.

Test [3] deals with zebrafish. The test can be described thus: Optovin-response suppression assay (pain-related). The note with it: in words; relative to concentrations that caused eASRs.
Description: To determine if any of the hit compounds may be analgesic, we used optovin-induced motor activity as a potential analgesia-related assay.
For test [4], the system named is zebrafish. The format is in vivo. The note with it: in words. As to the method: Behavioral assays for pERK. Animals were treated with DMSO or drug for one hour then exposed to a low-volume acoustic stimulus every 10 seconds for 10 minutes. Optovin-treated animals were stimulated with violet light for one second every 10 seconds for 10 minutes. Videos were recorded to measure response to the stimulus and quantified by motion index (MI). […]

The values that follow come from paper PMC6733874, “Zebrafish behavioural profiling identifies GABA and serotonin receptor ligands related to sedation and paradoxical excitation” (Nature Communications, 2019).

Entries after “also recorded” stand apart in the source; their conditions may differ.

`CCCCn1c2ccccc2n2c(C(=O)OCC)c(C)nc12` [compound 5658603]: the “rescue of behavioral phenotypes by pretreatment with the GABAAR antagonist PTX” value (shortened to “rescue of behavioral phenotypes”) in the test with zebrafish [1] was “rescued”. Also, in test [2], the “Ave Norm FLIPR Score” value was determined as 55.24 and the “FLIPR Results” value was “Positive”. Besides, in the test on zebrafish [3], the “optovin response (optovin-induced motor activity)” value (shortened to “optovin response”) is “did not suppress the optovin response”.

As to `Cc1ccc(Cl)cc1NC(=O)COc1c(C)cccc1C` [compound 5942595], in the test on zebrafish [1], the “rescue of behavioral phenotypes” value is “partially rescued”. Moreover, in test [2], the “Ave Norm FLIPR Score” value was 84.91; the “FLIPR Results” value is on record as “Positive”; the “GABAAR PAM activity in FLIPR, in words” value was “potentiated GABAARs significantly greater than positive controls; also recorded: significantly greater than the positive controls”. Moreover, the “optovin response” value in the test on zebrafish [3] is on record as “blocked optovin-induced motor activity”.

On to `COc1ccc(S(=O)(=O)NC2CCCC2)cc1Br` [compound 6028165], for which, in the test on zebrafish [1], the “rescue of behavioral phenotypes” value is “partially rescued”. Also, in test [2], the “Ave Norm FLIPR Score” value is recorded as 28.76 and the “FLIPR Results” value is recorded as “Positive”. In addition, the “optovin response” value with zebrafish [3] was “only reduced the optovin response at concentrations that also reduced eASRs”.

Turning to `CC(C)c1ccc(NS(=O)(=O)c2ccc3c(c2)OCCO3)cc1` [compound 6212662], the “Ave Norm FLIPR Score” value in test [2] is given as -5.179. Further, the “optovin response” value with zebrafish [3] was “only reduced the optovin response at concentrations that also reduced eASRs”.

Consider `CCOC(=O)c1c(C)n(Cc2ccco2)c2ccc(OC)cc12` [compound 7114005], for which, in test [2], the “Ave Norm FLIPR Score” value worked out at 15.23 and the “FLIPR Results” value is “Positive”. Further, in the test with zebrafish [3], the “optovin response” value is on record as “blocked optovin-induced motor activity”.

For `Cc1cc(/C=C2/SC(=S)NC2=O)c(C)n1-c1cccnc1` [optovin], in the test on zebrafish [4], the “pERK labeling (neuronal activity)” value is “neuronal activity increased in many brain regions including the telencephalon and optic tectum but not in the hindbrain”.

As for picrotoxin, the Phenoscore in the test with zebrafish [1] (zebrafish, in vivo) stood at 0.03. Besides, in test [2], the “Ave Norm FLIPR Score” value was -9.76 and the “GABAAR PAM activity in FLIPR, in words” value is listed as “PAM activity was not observed”. Further, the “pERK labeling (neuronal activity)” value with zebrafish [4] is “neuronal activity increased in the telencephalon but not in the hindbrain”.
